# How the values were obtained:
# [1] = Influence factor stability test of the crystal form A of the compound of formula (II-1); assay type: physicochemical
# Protocol: High humidity (25° C./92.5% RH): 1 g of each sample was weighed and the sample was placed in an open flat weighing bottle (70×35 mm) under 25° C./92.5% RH conditions, and then placed in a comprehensive drug stability chamber (25° C./92.5% RH) for investigation.
# High temperature (60° C.): 1 g of each sample was weighed and the sample was placed in an open flat weighing bottle under 60° C. conditions, and then placed in a blast drying oven (60° C.) for investigation.
# Illumination: 1 g of each sample was weighed. The samples with illumination condition were placed in a clean watch glass, spread into a thin layer and put into 5000±500 lux (visible light) with 90 μw/cm^2 (UV) conditions for illumination.
# [2] = Accelerated stability test of the crystal form A of the compound of formula (II-1); assay type: physicochemical; conditions: long-term placement conditions
# [3] = as above; assay type: physicochemical; conditions: 40° C./75% RH
# Protocol: Accelerated stability test: each sample was weighed 0.8 g (accelerated 1 month, accelerated 2 months) or 1.2 g (accelerated 3 months, accelerated 6 months) into double-layer low-density polyethylene (LDPE) bags, and each layer of LDPE bags was pierced and sealed, and then the LDPE bags were put into aluminum foil bags and heat sealed, respectively, and put into 40° C./75% RH conditions for investigation.
# [4] = Pharmacokinetic study of the crystal form A of the compound of formula (II-1) in SD rats; assay type: in vivo
# Protocol: Experimental Purpose: To Study the Pharmacokinetics of the Compounds in SD Rats
# Experimental Materials: SD Rats (12, Half Male and Half Female)
# Experimental procedure: The pharmacokinetic characteristics of the compounds were tested in rodents after intravenous (IV) and oral (PO) administration using standard protocols. The candidate compounds were prepared into 0.5 mg/mL and 1 mg/mL clarified solutions and administrated to rats for single intravenous injection and oral administration. The solvent for both intravenous and oral administration was 5% DMSO/95% (10% hydroxypropyl β-cyclodextrin) aqueous solution. 12 SD rats were used in this project, and 6 rats (half male and half female) were administered intravenously at a dose of 1 mg/kg and plasma samples were collected at 0.0833, 0.25, 0.5, 1, 2, 4, 8, 12, and 24 h after administration, and the other 6 rats (half male and half female) were administered orally by gavage at a dose of 10 mg/kg and plasma samples were collected at 0.25, 0.5, 1, 2, 4, 8, 12 and 24 h after administration. 15 μL of plasma sample was added to a 96-well plate, and 300 μL of internal standard working solution (MeOH (containing 1.00 ng/mL Verapamil and 0.1% formic acid (FA)): ACN (v:v, 50:50) solution) was added to precipitate the proteins, the 96-well plate was shaken for 15 min, followed by centrifugation at 4° C., 3220 g for 15 min. 150 μL of supernatant was placed in a new 96-well plate with 150 μL of aqueous solution containing 0.1% formic acid (FA) and shaken for 10 min, and then centrifuged at 4° C., 3220 g for 5 min. The samples were directly injected, and the plasma drug concentration was quantitatively analyzed by LC-MS/MS analysis method, and pharmacokinetic parameters were calculated, such as peak concentration (Cmax), clearance rate (CL), half-life (T1/2), […] (Vdss), area under the drug-time curve (AUC0-last), bioavailability (F), etc.
# [5] = Solid stability test of the crystal form A of the compound of formula (II-1) (XRPD); assay type: physicochemical
# Protocol: About 10 mg of the crystal form was accurately weighed and added to a dry and clean glass flask, spread into a thin layer, covered with aluminum foil, pierced small holes and placed under the influence factor test conditions and under accelerated conditions. Samples placed under illumination (visible light 1200000 Lux, UV 200 W) conditions were placed in clear glass flasks, fully exposed, and samples used for XRPD detection were placed separately.
# After the samples were removed at the time point, the cover was covered, and the flask was sealed using sealing film, and stored in −20° C. refrigerator. When preparing the sample, the sample was removed from the refrigerator, restored to room temperature; 10 mL of 80% ACN was added, and the sample was dissolved by sonication for 2 min to obtain a solution with a concentration of about 1 mg/mL, then the liquid phase was used for injection analysis, and the detection results were compared with the initial detection results on day 0.
# Preparation of standard solution on day 0: About 10 mg of the crystal was weighed and added to a 10 mL volumetric flask, dissolved with 80% ACN and the volume was fixed to the scale.
structure (smiles),measurement,setting,value
COc1cccc(C(CN)NC(=O)c2cc(-c3ccc4[nH]nc(C)c4c3)ccn2)c1.Cl.Cl (stereo not drawn),Content,[1]; 0 day,99.5%
same,Impurity at relative retention time (RRT) 0.66,[1]; 0 day,0.06%
same,Impurity at relative retention time (RRT) 0.85,[1]; 0 day,0.34%
same,Impurity at relative retention time (RRT) 0.90,[1]; 0 day,0.02%
same,Impurity at relative retention time (RRT) 1.64,[1]; 0 day,0.06%
same,Total impurities,[1]; 0 day,0.46%
same,Content,"[1]; 25° C./92.5% RH, 1 month",98.9%
same,Impurity at relative retention time (RRT) 0.66,"[1]; 25° C./92.5% RH, 1 month",0.06%
same,Impurity at relative retention time (RRT) 0.85,"[1]; 25° C./92.5% RH, 1 month",0.32%
same,Impurity at relative retention time (RRT) 0.90,"[1]; 25° C./92.5% RH, 1 month",0.03%
same,Impurity at relative retention time (RRT) 1.64,"[1]; 25° C./92.5% RH, 1 month",0.05%
same,Total impurities,"[1]; 25° C./92.5% RH, 1 month",0.43%
same,Content,"[1]; 60° C., 1 month",99.6%
same,Impurity at relative retention time (RRT) 0.66,"[1]; 60° C., 1 month",0.06%
same,Impurity at relative retention time (RRT) 0.85,"[1]; 60° C., 1 month",0.31%
same,Impurity at relative retention time (RRT) 0.90,"[1]; 60° C., 1 month",0.06%
same,Impurity at relative retention time (RRT) 1.64,"[1]; 60° C., 1 month",0.04%
same,Total impurities,"[1]; 60° C., 1 month",0.43%
same,Content,"[1]; Illumination, 10 days",97.6%
same,Impurity at relative retention time (RRT) 0.66,"[1]; Illumination, 10 days",0.09%
same,Impurity at relative retention time (RRT) 0.85,"[1]; Illumination, 10 days",0.31%
same,Impurity at relative retention time (RRT) 0.90,"[1]; Illumination, 10 days",0.02%
same,Impurity at relative retention time (RRT) 1.64,"[1]; Illumination, 10 days",0.05%
same,Total impurities,"[1]; Illumination, 10 days",0.51%
same,stability in influence factor test (conclusion in words),"[1]; illumination, high temperature and high humidity",stable
same,stability in accelerated test (conclusion in words),[2],stable
same,Content,[3]; 0 day,99.5%
same,Impurity at RRT 0.66,[3]; 0 day,0.06%
same,Impurity at RRT 0.85,[3]; 0 day,0.34%
same,Impurity at RRT 0.90,[3]; 0 day,0.02%
same,Impurity at RRT 1.64,[3]; 0 day,0.06%
same,Total impurities,[3]; 0 day,0.46%
same,Content,[3]; 1 month,100.0%
same,Impurity at RRT 0.66,[3]; 1 month,0.06%
same,Impurity at RRT 0.85,[3]; 1 month,0.36%
same,Impurity at RRT 0.90,[3]; 1 month,0.02%
same,Impurity at RRT 1.64,[3]; 1 month,0.05%
same,Total impurities,[3]; 1 month,0.47%
same,Content,[3]; 2 months,99.6%
same,Impurity at RRT 0.66,[3]; 2 months,0.06%
same,Impurity at RRT 0.85,[3]; 2 months,0.33%
same,Impurity at RRT 0.90,[3]; 2 months,0.03%
same,Impurity at RRT 1.64,[3]; 2 months,0.04%
same,Total impurities,[3]; 2 months,0.39%
same,Content,[3]; 3 months,98.8%
same,Impurity at RRT 0.66,[3]; 3 months,0.06%
same,Impurity at RRT 0.85,[3]; 3 months,0.33%
same,Impurity at RRT 0.90,[3]; 3 months,0.04%
same,Impurity at RRT 1.64,[3]; 3 months,0.04%
same,Total impurities,[3]; 3 months,0.39%
same,Clearance rate CL,"[4]; SD rats, IV 1 mg/kg",22.4 mL/min/kg
same,Half-life T1/2 (IV),"[4]; SD rats, IV 1 mg/kg",4.93 h
same,Tissue distribution Vdss,"[4]; SD rats, IV 1 mg/kg",7.39 L/kg
same,Bioavailability F,"[4]; SD rats, IV 1 mg/kg, PO 10 mg/kg",17.8%
same,Area under drug-time curve AUC0-last PO,"[4]; SD rats, PO 10 mg/kg",3.69 µM·h
same,Cmax,"[4]; SD rats, half male and half female, PO 10 mg/kg, read-out: Peak concentration Cmax",519 nM
same,pharmacokinetic properties (conclusion in words),[4]; rats,good pharmacokinetic properties
same,Crystal form,[5]; 0 day,Crystal form A
same,solid stability (conclusion in words),[5]; 92.5% high humidity conditions,crystal transformation will occur
same,Crystal form,"[5]; High humidity (relative humidity 75%, open), 5 days",Crystal form A
same,Crystal form,"[5]; High humidity (relative humidity 75%, open), 10 days",Crystal form A
same,Crystal form,"[5]; High humidity (relative humidity 92.5%, open), 5 days",Crystal form C
same,Crystal form,"[5]; High humidity (relative humidity 92.5%, open), 10 days",Crystal form C
same,Crystal form,"[5]; High temperature (60° C., open), 5 days",Crystal form A
same,Crystal form,"[5]; High temperature (60° C., open), 10 days",Crystal form A
same,Crystal form,"[5]; High temperature and humidity (40° C. relative humidity 75%, open), 5 days",Crystal form A
same,Crystal form,"[5]; High temperature and humidity (40° C. relative humidity 75%, open), 10 days",Crystal form A
same,Crystal form,"[5]; High temperature and humidity (60° C. relative humidity 75%, open), 5 days",Crystal form A
same,Crystal form,"[5]; High temperature and humidity (60° C. relative humidity 75%, open), 10 days",Crystal form A
same,Crystal form,"[5]; Illumination (total illuminance = 1.2 × 10^6 Lux·hr/near UV = 200 w·hr/m^2, open), 5 days",Crystal form A
same,Crystal form,"[5]; Illumination (total illuminance = 1.2 × 10^6 Lux·hr/near UV = 200 w·hr/m^2, open), 10 days",Crystal form A
same,solid stability (conclusion in words),"[5]; high temperature, 75% humidity and strong illumination conditions",good stability

# Reference: patent US11702400B2, “Salt types, crystal forms, and preparation methods for benzopyrazole compounds as RHO kinase inhibitors” (MEDSHINE DISCOVERY INC., priority 2019, dated 2023)
